Measured values published in patent US20250122225A1, “MASP-2 INHIBITORS AND METHODS OF USE” (Omeros Corporation, priority 2023, published 2025).
Structures can show the parent of a compound that is named as a salt.

What was measured:
human α-thrombin = biological target: T1, human α-thrombin (Homo sapiens, UniProt P00734); assay: Enzymatic assay for thrombin (fluorogenic peptide substrate Boc-VPR-AMC); assay type: biochemical
T1 construct: enzyme (human α-thrombin (BioPharm® Lab.)) in assay buffer; purchased BioPharm® Lab
Summary of the method: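 Human α-thrombin was run with the fluorogenic substrate Boc-VPR-AMC in 20 mM Hepes pH 7.4, 140 mM NaCl, 0.1% Tween 20 at room temperature for 20 min, then stopped with 0.1 M acetic acid. % activity was normalized to DMSO and no-enzyme controls. Under linear conditions IC50 equalled Ki, except for tight-binding inhibitors.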

MASP-2 (CCP1-CCP2-SP) = biological target: T2, MASP-2 (CCP1-CCP2-SP) (Homo sapiens, UniProt O00187); assay: Enzymatic assay for MASP-2 inhibitory activity (fluorogenic substrate); assay type: biochemical
T2 construct: 15 μL of Enzyme MASP-2 (CCP1-CCP2-SP) in Assay Buffer
Summary of the method: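 MASP-2 (CCP1-CCP2-SP) cleaved a fluorogenic substrate based on the C2 cleavage site in 20 mM HEPES pH 7.4, 140 mM NaCl, 0.1% Tween 20 at room temperature. After 20 min the reaction was stopped with 0.1 M acetic acid and fluorescence read. % activity was normalized to DMSO-only and no-enzyme controls; IC50 taken as Ki.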

T2 sequence (O00187 445-686 limits assumed): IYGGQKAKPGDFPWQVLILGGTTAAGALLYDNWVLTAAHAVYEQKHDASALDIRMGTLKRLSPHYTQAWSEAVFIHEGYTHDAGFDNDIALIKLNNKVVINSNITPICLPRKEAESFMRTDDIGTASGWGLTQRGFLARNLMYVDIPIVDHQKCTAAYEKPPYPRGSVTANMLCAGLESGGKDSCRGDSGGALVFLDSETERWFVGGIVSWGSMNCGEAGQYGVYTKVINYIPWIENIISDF
T2 sequence (O00187 287-444 partner limits assumed): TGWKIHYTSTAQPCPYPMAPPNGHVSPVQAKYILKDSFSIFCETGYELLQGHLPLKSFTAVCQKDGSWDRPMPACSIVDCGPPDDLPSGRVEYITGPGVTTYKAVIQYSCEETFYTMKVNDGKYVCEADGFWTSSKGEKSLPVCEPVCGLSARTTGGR

Row | Ki (human α-thrombin) | Ki (MASP-2 (CCP1-CCP2-SP)) | SMILES
1 | < 0.5 µM | < 0.5 µM | Cc1cc(C)cc([C@@H](CO)Nc2ncc3n(c2=O)[C@H](C(=O)NCc2cc4c(s2)CNC4)CC3)c1 [Compound 92, (S)-N-((5,6-dihydro-4H-thieno[2,3-c]pyrrol-2-yl)methyl)-3-(((S)-1-(3,5-dimethylphenyl)-2-hydroxyethyl)amino)-4-oxo-4,6,7,8-tetrahydropyrrolo[1,2-a]pyrazine-6-carboxamide]
2 | 2.5 to 10 µM | < 0.5 µM | COc1cccc(CNc2ncc3n(c2=O)[C@H](C(=O)NCc2cc4cnccc4[nH]2)CC3)c1 [Compound 39, (S)-N-((1H-pyrrolo[3,2-c]pyridin-2-yl)methyl)-3-((3-methoxybenzyl)amino)-4-oxo-4,6,7,8-tetrahydropyrrolo[1,2-a]pyrazine-6-carboxamide trifluoroacetate]
3 | 10 to 25 µM | < 0.5 µM | Cc1ccc(C)c(CNc2ncc3n(c2=O)[C@H](C(=O)NCc2cc4cnc(C)cc4[nH]2)CC3)c1 [Compound 57, (S)-3-((2,5-dimethylbenzyl)amino)-N-((6-methyl-1H-pyrrolo[3,2-c]pyridin-2-yl)methyl)-4-oxo-4,6,7,8-tetrahydropyrrolo[1,2-a]pyrazine-6-carboxamide]
4 | 2.5 to 10 µM | < 0.5 µM | Cc1ccccc1CNc1nc(Cl)c2n(c1=O)[C@H](C(=O)NCc1cc3cnccc3[nH]1)CC2 [Compound 9, (S)-N-((1H-pyrrolo[3,2-c]pyridin-2-yl)methyl)-1-chloro-3-((2-methylbenzyl)amino)-4-oxo-4,6,7,8-tetrahydropyrrolo[1,2-a]pyrazine-6-carboxamide]
5 | 2.5 to 10 µM | 0.5 to 2.5 µM | Cc1nc(N)ccc1CNC(=O)[C@@H]1CCc2cnc(NCc3cn4c(n3)CCCC4)c(=O)n21 [Compound 168, (S)-N-((6-amino-2-methylpyridin-3-yl)methyl)-4-oxo-3-(((5,6,7,8-tetrahydroimidazo[1,2-a]pyridin-2-yl)methyl)amino)-4,6,7,8-tetrahydropyrrolo[1,2-a]pyrazine-6-carboxamide trifluoroacetate]
6 | 0.5 to 2.5 µM | < 0.5 µM | Cc1ccc(F)c(CNc2nc(Cl)c3n(c2=O)[C@H](C(=O)NCc2ccc(N)nc2C)CC3)c1 [Compound 20, (S)-N-((6-amino-2-methylpyridin-3-yl)methyl)-1-chloro-3-((2-fluoro-5-methylbenzyl)amino)-4-oxo-4,6,7,8-tetrahydropyrrolo[1,2-a]pyrazine-6-carboxamide]
7 | 2.5 to 10 µM | < 0.5 µM | Cc1nc(N)ccc1CNC(=O)C1CCc2c(Cl)nc(NCc3cncnc3)c(=O)n21 (stereo not shown) [Compound 150]
8 | 10 to 25 µM | < 0.5 µM | Cc1nc(N)ccc1CNC(=O)[C@@H]1CCc2c(Cl)nc(NCC3CCOC3)c(=O)n21 (stereo partly drawn) [Compound 118, (6S)—N-((6-amino-2-methylpyridin-3-yl)methyl)-1-chloro-4-oxo-3-(((tetrahydrofuran-3-yl)methyl)amino)-4,6,7,8-tetrahydropyrrolo[1,2-a]pyrazine-6-carboxamide]
9 | 2.5 to 10 µM | 0.5 to 2.5 µM | Cc1cc(F)cc(CNc2ncc3n(c2=O)[C@H](C(=O)NCc2cnc4[nH]ccc4c2)CC3)c1 [Compound 183, (S)-N-((1H-pyrrolo[2,3-b]pyridin-5-yl)methyl)-3-((3-fluoro-5-methylbenzyl)amino)-4-oxo-4,6,7,8-tetrahydropyrrolo[1,2-a]pyrazine-6-carboxamide]
10 | < 0.5 µM | < 0.5 µM | O=C(NCc1cc2c(s1)CNC2)[C@@H]1CCc2cnc(NC3CCc4ccccc43)c(=O)n21 (stereo partly shown) [Compound 235]
11 | 0.5 to 2.5 µM | < 0.5 µM | Cc1ccc(C)c(CNc2nc(Cl)c3n(c2=O)[C@H](C(=O)NCc2ccc(N)nc2C)CC3)c1 [Compound 10, (S)-N-((6-amino-2-methylpyridin-3-yl)methyl)-1-chloro-3-((2,5-dimethylbenzyl)amino)-4-oxo-4,6,7,8-tetrahydropyrrolo[1,2-a]pyrazine-6-carboxamide]
12 | 10 to 25 µM | < 0.5 µM | Cc1ccc(C)c(CNc2nc(Cl)c3n(c2=O)[C@H](C(=O)NCc2cc4cnccc4[nH]2)CC3)c1 [Compound 11, (S)-N-((1H-pyrrolo[3,2-c]pyridin-2-yl)methyl)-1-chloro-3-((2,5-dimethylbenzyl)amino)-4-oxo-4,6,7,8-tetrahydropyrrolo[1,2-a]pyrazine-6-carboxamide]
13 | > 25 µM | < 0.5 µM | Cc1cc(F)cc(CNc2nc(-c3ccccc3)c3n(c2=O)[C@H](C(=O)NCc2ccc(N)nc2C)CC3)c1 [Compound 217, (S)-N-((6-amino-2-methylpyridin-3-yl)methyl)-3-((3-fluoro-5-methylbenzyl)amino)-4-oxo-1-phenyl-4,6,7,8-tetrahydropyrrolo[1,2-a]pyrazine-6-carboxamide trifluoroacetate]
14 | < 0.5 µM | < 0.5 µM | COc1cc(F)cc(CNc2ncc3n(c2=O)[C@H](C(=O)NCc2ccc(N)nc2C)CC3)c1 [Compound 171, (S)-N-((6-amino-2-methylpyridin-3-yl)methyl)-3-((3-fluoro-5-methoxybenzyl)amino)-4-oxo-4,6,7,8-tetrahydropyrrolo[1,2-a]pyrazine-6-carboxamide trifluoroacetate]
15 | 2.5 to 10 µM | < 0.5 µM | O=C(NCc1cc2cnccc2[nH]1)[C@@H]1CCc2c(Cl)nc(NCc3cccc(C4CC4)c3)c(=O)n21 [Compound 133, (S)-N-((1H-pyrrolo[3,2-c]pyridin-2-yl)methyl)-1-chloro-3-((3-cyclopropylbenzyl)amino)-4-oxo-4,6,7,8-tetrahydropyrrolo[1,2-a]pyrazine-6-carboxamide]
16 | 0.5 to 2.5 µM | < 0.5 µM | Cc1nc(N)ccc1CNC(=O)[C@@H]1CCc2c(Cl)nc(NCc3cccc(S(C)(=O)=O)c3)c(=O)n21 [Compound 98, (S)—N-((6-amino-2-methylpyridin-3-yl)methyl)-1-chloro-3-((3-(methylsulfonyl)benzyl)amino)-4-oxo-4,6,7,8-tetrahydropyrrolo[1,2-a]pyrazine-6-carboxamide trifluoroacetate]
17 | 0.5 to 2.5 µM | < 0.5 µM | Cc1ccccc1CNc1ncc2n(c1=O)[C@H](C(=O)NCc1cc3cnccc3[nH]1)CC2 [Compound 53, (S)-N-((1H-pyrrolo[3,2-c]pyridin-2-yl)methyl)-3-((2-methylbenzyl)amino)-4-oxo-4,6,7,8-tetrahydropyrrolo[1,2-a]pyrazine-6-carboxamide]
18 | 2.5 to 10 µM | 2.5 to 10 µM | Cc1cc(F)cc(CNc2ncc3n(c2=O)[C@H](C(=O)NC(C#N)c2cccc(Cl)c2)CC3)c1 (stereo partly drawn) [Compound 185, (6S)-N-((3-chlorophenyl)(cyano)methyl)-3-((3-fluoro-5-methylbenzyl)amino)-4-oxo-4,6,7,8-tetrahydropyrrolo[1,2-a]pyrazine-6-carboxamide]
19 | > 25 µM | 10 to 25 µM | Cc1cc(C)cc(CNc2ncc3n(c2=O)[C@H](C(=O)NCc2ccccn2)CC3)c1 [Compound 40, (S)-3-((3,5-dimethylbenzyl)amino)-4-oxo-N-(pyridin-2-ylmethyl)-4,6,7,8-tetrahydropyrrolo[1,2-a]pyrazine-6-carboxamide trifluoroacetate]
20 | 2.5 to 10 µM | < 0.5 µM | CC[C@H]1C[C@@H](C(=O)NCc2cc3c(s2)CNC3)n2c1c(Cl)nc(NCc1ccccc1)c2=O [Compound 158, (6S,8S)-3-(benzylamino)-1-chloro-N-((5,6-dihydro-4H-thieno[2,3-c]pyrrol-2-yl)methyl)-8-ethyl-4-oxo-4,6,7,8-tetrahydropyrrolo[1,2-a]pyrazine-6-carboxamide hydrochloride]
21 | < 0.5 µM | < 0.5 µM | O=C(NCc1cc2c(s1)CNC2)[C@@H]1CCc2cnc(N[C@@H](c3ccccc3)C3CCCC3)c(=O)n21 [Compound 279, (S)-3-(((R)-cyclopentyl(phenyl)methyl)amino)-N-((5,6-dihydro-4H-thieno[2,3-c]pyrrol-2-yl)methyl)-4-oxo-4,6,7,8-tetrahydropyrrolo[1,2-a]pyrazine-6-carboxamide]
22 | 10 to 25 µM | < 0.5 µM | O=C(NCc1cc2cnccc2[nH]1)[C@@H]1CC2(CCCC2)c2c(Cl)nc(NCc3ccccc3)c(=O)n21 [Compound 231, (S)—N-((1H-pyrrolo[3,2-c]pyridin-2-yl)methyl)-3′-(benzylamino)-1′-chloro-4′-oxo-6′,7′-dihydro-4′H-spiro[cyclopentane-1,8′-pyrrolo[1,2-a]pyrazine]-6′-carboxamide trifluoroacetate]
23 | < 0.5 µM | < 0.5 µM | Cc1ccc(F)c(CNc2ncc3n(c2=O)[C@H](C(=O)NCc2ccc(N)nc2)CC3)c1 [Compound 79, (S)-N-((6-aminopyridin-3-yl)methyl)-3-((2-fluoro-5-methylbenzyl)amino)-4-oxo-4,6,7,8-tetrahydropyrrolo[1,2-a]pyrazine-6-carboxamide]
24 | > 25 µM | 2.5 to 10 µM | Cc1cc(F)cc(CNc2ncc3n(c2=O)[C@H](C(=O)NCc2cnc4ccccn24)CC3)c1 [Compound 204, trifluoroacetate]
25 | 2.5 to 10 µM | < 0.5 µM | O=C(NCc1cc2cnccc2[nH]1)[C@@H]1CCc2c(Cl)nc(NC3(c4ccccc4)CC3)c(=O)n21 [Compound 106, (S)-N-((1H-pyrrolo[3,2-c]pyridin-2-yl)methyl)-1-chloro-4-oxo-3-((1-phenylcyclopropyl)amino)-4,6,7,8-tetrahydropyrrolo[1,2-a]pyrazine-6-carboxamide]
26 | < 0.5 µM | < 0.5 µM | Cc1ccc(C)c(CNc2ncc3n(c2=O)[C@H](C(=O)NCc2ccc(N)nc2C)CC3)c1 [Compound 55, (S)-N-((6-amino-2-methylpyridin-3-yl)methyl)-3-((2,5-dimethylbenzyl)amino)-4-oxo-4,6,7,8-tetrahydropyrrolo[1,2-a]pyrazine-6-carboxamide]
